Assay results as given in patent US6818621B2, “Osteopontin-derived chemotactic and inhibitory agents and uses therefor” (Children's Medical Center Corporation, priority 1999, dated 2004).
Marks after values point to notes of the source that are not given here. Where no end group is shown, it is not given here.

Tests used:
[1] = system: MDA-MB-231 cells (CD44+ human breast adenocarcinoma cells); test: Chemotactic chamber (Boyden) assay, migration through polycarbonate filters; format: cell-based; conditions: for MI buffer / MI: Table 4; for MI buffer: cells migrating in response to peptide divided by cells migrating in response to buffer; for Migratory Index: Table 3, cells migrating in response to peptide/cells migration in response to LVLDPK; for mean number of migrating cells per six random high powered fields: Table 2; for MI: migratory index; for chemotactic response of MDA-MB231 (in words): p<0.01, 200 ng of bone OPN; for mean number of migrating cells per random high power field: Table 1, 4 hours
Protocol: Each peak was then tested for mediation of chemotaxis or for its ability to inhibit OPN mediated chemotaxis using the chemotactic assay as follows (see e.g., Weber et al. (1996) Science 271:509-512). Briefly, uncoated polycarbonated filters (pore size […] ) were used to separate the upper and lower chambers of chemotactic wells. 1×10^3 MDA-MB-231 cells (CD44^+human breast adenocarcinoma cells) were added to the upper chamber and incubated in the presence or absence of the indicated 50 pmols peptide. After 4 hours, the filters were removed, fixed in methanol arid stained with hematoxylin and eosin. Cells which have responded to the peptide, migrate to various areas of the lower surface and can be counted microscopically. Each data point is reported as the mean number of migrating cells per random high power field.
Peptide 51 was identified as being chemotactic. The peptide was sequenced using a gas-phase sequenator and determined to have the sequence LVLDPK (SEQ ID NO:1). To confirm that chemotaxis was due to this peptide, a 16 amino acid peptide spanning the chemotactic sequence in OPN was synthesized and tested for its chemotactic properties. The resulting peptide, SP64 has the sequence KFHSHKDKLVLDPKSK (SEQ ID NO:2) and containing the chemotactic sequence from residues 9-14. 2×10^4 MDA-MB-231 cells were assayed for chemotactic response to the indicated peptides as described above. Each data point is reported as the mean number of migrating cells per six random high powered fields ± standard error of the mean. Each experiment was repeated four times.
To test the amino acid specificity for chemotactic response several substitutions were created in the chemotactic sequence and the new peptides tested for their ability to induce chemotaxis. Data are expressed as migratory index (cells migrating in response to peptide/cells migration in response to LVLDPK, SEQ ID NO:1).
(§1) To evaluate the potential of peptide analogues to inhibit OPN induced chemotaxis, 100 nmoles of peptide was added to the lower compartment and the response of these cells to OPN was determined as described. MI(buffer) was calculated by dividing the number of cells migrating in response to peptide by the number of cells migrating in response to buffer. MI(inhibitory) equals the number of cells migrating towards OPN in the presence of buffer divided by the number migrating towards OPN in the presence of peptide.

[2] = system: MDA-MB-231 cells; test: Inhibition of OPN induced chemotaxis in the chemotactic chamber assay; format: cell-based, human; conditions: for MI inhibitory: Table 4, 100 nmoles of peptide, cells migrating towards OPN in presence of buffer divided by number migrating towards OPN in presence of peptide
Protocol: as §1

[3] = system: cells recruited into the peritoneum; test: In vivo chemotaxis after injection of peptide into the peritoneal cavity, lavage and flow cytometry; set-up: species or system C57 black mice; conditions: for induction ratio, Total / induction ratio, Total CD44 / induction ratio, B-lymphocytes / induction ratio, T-lymphocytes / induction ratio, Monocytes: 25 nmols i.p., 6 hours, normalized to PBS-injected mouse, average of 6 mice; for induction ratio, B-lymphocytes: B220+; for induction ratio, T-lymphocytes: CD3+; for induction ratio, Monocytes: Mac-1+; for chemotactic activity in vivo (in words): mouse
Protocol: Since the peptide LVLDPK (SEQ ID NO:1) was chemotactic to tumor cells and macrophages in vitro, we tested whether the peptide was chemotactic in vivo. 25 nmols of the peptide were injected into the peritoneal cavity of C57 black mice. After six hours the cells recruited into the peritoneum were recovered by lavage and identified by flow cytometry. Titration of soluble peptides into the peritoneum induces a cellular infiltrate in a dose dependent manner. The induction ratio is the number of cells of a particular lineage recovered from the peritoneum of a peptide-injected mouse (e.g., 6 hours after injection) normalized for each experiment to the number of cells of the same lineage recovered from the peritoneum of a PBS-injected mouse. Cell numbers for PBS-injected mice ranged from […] to 646,000 cells total; 182,300 to 325,000 CD44^+ cells; 224,000 to 496,000 […] cells; 31,300 to 76,000 B220^+ cells; 18,100 to 21,100 CD3^+ cells), representing the induction of macrophages (Mac-1^+), B cells (B220^+), and T cells (CD3^+). Values represent an average of 6 mice.

[4] = labelled agent in lower chamber, Ab64 in upper chamber
[5] = labelled agent in lower chamber, OPN in upper chamber
[6] = labelled agent in lower chamber, PBS in upper chamber, 2×10^4 cells
[7] = labelled agent in lower chamber, SP64 in upper chamber
[8] = labelled agent in lower chamber, pep 51 in upper chamber
[9] = labelled agent in upper chamber, PBS in lower chamber

| Substance | MI buffer [1] | MI inhibitory [2] | chemotactic activity (in words) [1] | Migratory Index [1] | MI [1] | also measured |
| --- | --- | --- | --- | --- | --- | --- |
| Acetyl-LVLDP (Ac-LVLDP) [pepK″] | 1 | 4 |  |  |  |  |
| ILVDPK (OTHER INFORMATION: Description of Artificial Sequence:Synthetic Peptide) |  |  | chemotactic activity |  |  |  |
| ILVVDPK (OTHER INFORMATION: Description of Artificial Sequence:Synthetic Peptide) [pepK′] |  |  |  | 1.0 |  |  |
| KFHSHKDKLVLDPKSK (OTHER INFORMATION: Description of Artificial Sequence:Synthetic Peptide) [SP64] | 12 | 9 |  | 1 | 1 | mean number of migrating cells per six random high powered fields [1, 4]: 25 cells per six random high powered fields; mean number of migrating cells per six random high powered fields [1, 5]: 66 cells per six random high powered fields; mean number of migrating cells per six random high powered fields [1, 6]: 217 cells per six random high powered fields; mean number of migrating cells per six random high powered fields [1, 7]: 66 cells per six random high powered fields; mean number of migrating cells per six random high powered fields [1, 8]: 97 cells per six random high powered fields; mean number of migrating cells per six random high powered fields [1, 9]: 243 cells per six random high powered fields; chemotactic response of MDA-MB231 (in words) [1]: stimulated the chemotactic response |
| LELDPK (OTHER INFORMATION: Description of Artificial Sequence:Synthetic Peptide) [pepH] | 2 | 10 |  | 0.3 | 0.3 |  |
| LLVDPK (OTHER INFORMATION: Description of Artificial Sequence:Synthetic Peptide) |  |  | chemotactic activity |  |  |  |
| LVIDPK (OTHER INFORMATION: Description of Artificial Sequence:Synthetic Peptide) [pepD] | 11 | 9 |  | 1 | 1 |  |
| LVLAPK (OTHER INFORMATION: Description of Artificial Sequence:Synthetic Peptide) [pepI] | 1 | 9 |  | 0.1 | 0.1 |  |
| LVLDEK (OTHER INFORMATION: Description of Artificial Sequence:Synthetic Peptide) [pepE] | 2 | 10 |  | 0.2 | 0.2 |  |
| LVLDP (OTHER INFORMATION: Description of Artificial Sequence:Synthetic Peptide) [pepG] | 0 | 4 |  | 0.1 | 0.1 | inhibition of chemotaxis by peptide (in words) ([2]; migratory index against peptide 51): inhibits chemotaxis |
| LVLDPA (OTHER INFORMATION: Description of Artificial Sequence:Synthetic Peptide) [pepK] |  |  |  | 0.1 |  |  |
| LVLDPK (OTHER INFORMATION: Description of Artificial Sequence:Synthetic Peptide) [peptide 51, chemotactic tryptic peptide of osteopontin] | 10 | 10 | chemotactic | 1 | 1 | mean number of migrating cells per random high power field ([1]; labelled peptide (50 pmols) in lower chamber, PBS in upper chamber, 1×10^3 cells): 68* cells per random high power field; mean number of migrating cells per random high power field ([1]; labelled peptide in lower chamber, peptide 49 in upper chamber): 83* cells per random high power field; mean number of migrating cells per random high power field ([1]; labelled peptide in lower chamber, peptide 50 in upper chamber): 56* cells per random high power field; mean number of migrating cells per random high power field ([1]; labelled peptide in lower chamber, peptide 51 in upper chamber): 32 cells per random high power field; mean number of migrating cells per random high power field ([1]; labelled peptide in lower chamber, peptide 52 in upper chamber): 78* cells per random high power field; mean number of migrating cells per random high power field ([1]; labelled peptide in lower chamber, peptide 53 in upper chamber): 62* cells per random high power field; mean number of migrating cells per random high power field ([1]; labelled peptide in upper chamber, PBS in lower chamber): 13 cells per random high power field; mean number of migrating cells per six random high powered fields [1, 4]: 21 cells per six random high powered fields; mean number of migrating cells per six random high powered fields [1, 5]: 48 cells per six random high powered fields; mean number of migrating cells per six random high powered fields [1, 6]: 248 cells per six random high powered fields; mean number of migrating cells per six random high powered fields [1, 7]: 109 cells per six random high powered fields; mean number of migrating cells per six random high powered fields [1, 8]: 65 cells per six random high powered fields; mean number of migrating cells per six random high powered fields [1, 9]: 6 cells per six random high powered fields; chemotactic response of MDA-MB231 (in words) [1]: stimulated the chemotactic response; induction ratio, Total [3]: 8.6*; induction ratio, Total CD44 [3]: 7.9*; induction ratio, B-lymphocytes [3]: 1.3; induction ratio, T-lymphocytes [3]: 1.3; induction ratio, Monocytes [3]: 7.1*; chemotactic activity in vivo (in words) [3]: chemotactic to macrophages in vivo |
| LVLEPK (OTHER INFORMATION: Description of Artificial Sequence:Synthetic Peptide) [pepJ] | 6 | 9 |  | 0.6 | 0.6 |  |
| LVLVPK (OTHER INFORMATION: Description of Artificial Sequence:Synthetic Peptide) [pepA] |  |  |  | 0.2 |  | induction ratio, Total [3]: 1.3; induction ratio, Total CD44 [3]: 1.8; induction ratio, B-lymphocytes [3]: 1; induction ratio, T-lymphocytes [3]: 1.1; induction ratio, Monocytes [3]: 1.2 |
| LVPDPK (OTHER INFORMATION: Description of Artificial Sequence:Synthetic Peptide) [pepB] | 10 | 8 |  | 1 | 1 |  |
| LVPDSK (OTHER INFORMATION: Description of Artificial Sequence:Synthetic Peptide) [pepC] | 7 | 10 |  | 1 | 1 |  |
| VDPK (OTHER INFORMATION: Description of Artificial Sequence:Synthetic Peptide) |  |  | retain chemotactic activity |  |  |  |
| VLDPK (OTHER INFORMATION: Description of Artificial Sequence:Synthetic Peptide) [pepF] | 6 | 7 |  | 0.7 | 0.7 | induction ratio, Total [3]: 4; induction ratio, Total CD44 [3]: 3.1; induction ratio, B-lymphocytes [3]: 1.1; induction ratio, T-lymphocytes [3]: 0.8; induction ratio, Monocytes [3]: 2.8; chemotactic activity in vivo (in words) [3]: chemotactic but exhibited less activity |
| VLDSK (OTHER INFORMATION: Description of Artificial Sequence:Synthetic Peptide) |  |  | retain chemotactic activity |  |  |  |
| VVLDPK (OTHER INFORMATION: Description of Artificial Sequence:Synthetic Peptide) |  |  | chemotactic activity |  |  |  |
